Here are results for five molecules from patent US4160015A, “2,4,6-Triiodobenzoic acid derivatives and their use as x-ray contrast agents” (priority 1978, dated 1979).

Structures can show the parent of a compound that is named as a salt. Some results are limits rather than exact numbers.

Data set [1] in a line: water solubility. The format is physicochemical. The note with it: for water solubility: 25° C.
A short description of data set [2]: crystal formation on standing (sodium salt, five months at 5°-10° C.). Type of data set: physicochemical. The note with it: standing for over five months at 5°-10° C.
Data set [3] in a line: Acute Intravenous Toxicity Studies in Mice. The note with it: mouse, in vivo, lateral tail vein, solutions containing 28.27% iodine, 1 ml./min., seven day observation, read-out: LD50 of N-Methylglucamine Salt, I.V. (Mice). On the procedure:
(§1) Toxicity evaluations were carried out on solutions of the N-methylglucaminesalt of 5-gluconamido-2,4,6-triiodo-N-methylisophthalamic acid by three different techniques and on solutions of the N-methylglucamine salt of 3-acetamido-2,4,6-triiodo-5-trishydroxymethylacetamido-benzoic acid by two different techniques. The techniques utilized are outlined below.
Swiss Albino mice (Charles River) were dosed in the lateral tail vein with solutions of the iodinated compound containing 28.27% of iodine, injected at the rate of 1 ml./min. […] The LD50 values were calculated by the method of Litchfield and Wilcoxon (J. of Pharmac. and Exptl. Therap. 96:99-113, 1949).

Data set [4] in a line: Intracerebral Toxicity in Mice. The note with it: mouse, in vivo, fixed volumes of various concentrations, seven day observation, read-out: LD50 of N-Methylglucamine Salt, Intracerebral (Mice). On the procedure:
as §1
Swiss Albino mice (Charles River) were used. Fixed volumes of solutions of various concentrations of the iodinated compounds were injected intracerebrally via a 27 gauge needle, (1/4 inch length) according to the method of Haley, et al. (Br. J. of Pharmac. 12:12-15, 1957). The animals were observed immediately after injections and daily throughout a seven day observation period. The LD50 values were calculated by the method of Litchfield and Wilcoxon (J. of Pharmac. and Exptl. Therap. 96:99-113, 1949).

Data set [5] is described as follows: Intracisternal Toxicity in Rats. More on the design: species or system Sprague Dawley (Carworth) rats. The conditions noted are these: rat, in vivo, two day observation, read-out: LD50 of N-Methylglucamine Salt, Intracisternal (Rats). The method, then: as §1
Sprague Dawley (Carworth) rats were used. The method used is a variation of the procedure outlined by Melartin et al. (Invest. Rad. 5:13-21, 1970). After dosing, the animals were housed individually, and observed for immediate reactions and periodically for a two day observation period. The LD50 values were calculated according to the method of Litchfield and Wilcoxon, (J. of Pharmac. and Exptl. Therap. 96:99-115, 1949).

As to `CNC(=O)c1c(I)c(NC(=O)[C@H](O)[C@@H](O)[C@H](O)[C@H](O)CO)c(I)c(C(=O)O)c1I` [Example 2, Sodium 5-Gluconamido-2,4,6-triiodo-N-methylisophthalamate], the solubility in data set [1] (water, read-out: solubility of the sodium salt) was greater than 1010 mg/mL. The “crystals formed after standing” value in data set [2] is given as “no crystals formed”.

Consider `CNC(=O)c1c(I)c(NC(=O)[C@H](O)[C@@H](O)[C@H](O)[C@H](O)CO)c(I)c(C(=O)O)c1I` [N-methylglucaminesalt of 5-gluconamido-2,4,6-triiodo-N-methylisophthalamic acid], for which the median lethal dose (LD50) at 168 h in data set [3] stood at 5200 mg/kg; in data set [4], 620 mg/kg. Further, the median lethal dose (LD50) at 48 h in data set [5] stood at 355 mg/kg. `CC(=O)Nc1c(I)c(NC(=O)C(CO)(CO)CO)c(I)c(C(=O)O)c1I` [Example 3, 3-Acetamido-2,4,6-triiodo-5-(trishydroxymethyl)acetamido-benzoic Acid]: the water solubility in data set [1] is reported as 2-2.5 % w/v.

In the case of `CC(=O)Nc1c(I)c(NC(=O)C(CO)(CO)CO)c(I)c(C(=O)O)c1I` [N-methylglucamine salt of 3-acetamido-2,4,6-triiodo-5-trishydroxymethylacetamido-benzoic acid], the LD50 at 168 h worked out at 6000 mg/kg in data set [3] and 150 mg/kg in data set [4]. `CC(=O)Nc1c(I)c(NC(=O)C(CO)(CO)CO)c(I)c(C(=O)O)c1I` [Example 4, sodium salt of 3-acetamido-2,4,6-triiodo-5-trishydroxymethylacetamido-benzoic acid]: in data set [1], the water solubility was 63.5-66 % w/v.

What is called solubility is how much of the substance goes into solution per volume. Broadly, the LD50 is the dose expected to kill half of the subjects tested.
